Results on two molecules are retold here after ChEMBL document CHEMBL4261503, “Scaffold hopping via ANCHOR.QUERY: β-lactams as potent p53-MDM2 antagonists†” (Medchemcomm, 2017).

One test concerns the target T1, Protein Mdm4 (Homo sapiens, UniProt O15151).
T1 sequence (O15151 whole entry): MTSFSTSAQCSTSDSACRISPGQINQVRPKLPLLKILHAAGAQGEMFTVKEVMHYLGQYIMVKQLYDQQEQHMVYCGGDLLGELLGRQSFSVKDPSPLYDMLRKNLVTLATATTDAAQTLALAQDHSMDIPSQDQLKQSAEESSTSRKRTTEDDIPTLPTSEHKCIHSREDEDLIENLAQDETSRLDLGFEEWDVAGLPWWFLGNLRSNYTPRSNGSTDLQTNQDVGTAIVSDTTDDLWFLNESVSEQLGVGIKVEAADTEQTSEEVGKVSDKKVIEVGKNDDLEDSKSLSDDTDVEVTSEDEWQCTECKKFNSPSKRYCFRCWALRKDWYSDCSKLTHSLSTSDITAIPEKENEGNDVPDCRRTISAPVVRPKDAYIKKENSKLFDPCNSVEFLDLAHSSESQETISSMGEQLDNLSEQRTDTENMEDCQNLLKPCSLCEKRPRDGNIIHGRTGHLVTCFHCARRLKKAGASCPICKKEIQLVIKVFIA

Test [1] addresses E3 ubiquitin-protein ligase Mdm2 (Homo sapiens, UniProt Q00987).

Sequence of E3 ubiquitin-protein ligase Mdm2 (Q00987 whole entry): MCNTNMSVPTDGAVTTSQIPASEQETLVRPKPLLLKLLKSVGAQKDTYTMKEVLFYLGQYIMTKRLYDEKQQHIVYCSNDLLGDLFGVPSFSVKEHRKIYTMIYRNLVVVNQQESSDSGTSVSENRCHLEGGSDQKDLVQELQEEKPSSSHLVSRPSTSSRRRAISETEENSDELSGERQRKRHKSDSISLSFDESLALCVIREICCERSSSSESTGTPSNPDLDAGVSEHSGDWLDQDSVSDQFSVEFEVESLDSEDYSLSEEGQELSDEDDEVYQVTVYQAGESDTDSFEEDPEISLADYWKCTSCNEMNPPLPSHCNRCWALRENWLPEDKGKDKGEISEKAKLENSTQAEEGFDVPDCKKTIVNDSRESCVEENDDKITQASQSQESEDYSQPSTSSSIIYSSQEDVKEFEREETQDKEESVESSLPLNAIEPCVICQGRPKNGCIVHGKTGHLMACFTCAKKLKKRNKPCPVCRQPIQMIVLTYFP

As for `CC(C)(C)NC(=O)C(c1ccc(Cl)cc1)N1C(=O)CC1c1ccc(OCc2ccccc2)cc1` (mixture of isomers), the Ki result (at Protein Mdm4; in test [1]) was “Not Active” throughout.
As for `O=C(NC12CC3CC(CC(C3)C1)C2)C(c1ccc(Cl)cc1)N1C(=O)CC1c1ccc(OCc2ccccc2)cc1` (single isomer, unassigned; diastereomer A), the Ki entry (at Protein Mdm4; in test [1]) was “Not Active” throughout.
